Patent US9994577B2, “Azepanyl-derivatives and pharmaceutical compositions comprising the same with antiparasitic activity” (Merck Patent GmbH, priority 2014, dated 2018)

Each compound was assayed on P falciparum PF3D/0087/N9 (assay: In vivo efficacy in a murine model of P. falciparum-malaria (4-day test)). Conditions: NODscidIL2Rynull mice engrafted with human erythrocytes.
Set-up: species or system Plasmodium falciparum
Text: In vivo efficacy against P falciparum PF3D/0087/N9 for the compounds no. 2 and 3 as described in Examples 16 and 17.
The in vivo activity in a murine model of P. falciparum-malaria was adapted from the protocol as provided by Angulo-Barturen I, Jimènez-Diaz M B, Mulet T, Rullas J, Herreros E, et al. (2008) PLoS ONE 3(5): e2252. doi:10.1371/journal.pone.0002252.
This study measures the therapeutic efficacy of compounds no. 2 and 3 against Plasmodium falciparum growing in peripheral blood of NODscidIL2Rynull mice engrafted with human erythrocytes. The antimalarial efficacy of compounds no. 2 and 3 were assessed using a “4-day test”.
The parameters of efficacy estimated in the study are a) the dose of compounds no. 2 and 3 in mg·kg^−1 that reduces parasitemia at day 7 after infection by 90% with respect to vehicle-treated mice (parameter denoted as ED90)

Row | SMILES | ED90, dose that reduces parasitemia at day 7 after infection by 90% with respect to vehicle-treated mice [mg/kg]
1 | O[C@@H]1CNCCC[C@H]1n1c2ccc(Cl)cc2c2cc(Cl)ccc21 (stereo in doubt) [Compound 2, (3R,4R)-4-(3,6-dichloro-9H-carbazol-9-yl)azepan-3-ol] | < 10
2 | O[C@@H]1CNCCC[C@H]1n1c2ccc(C(F)(F)F)cc2c2cc(C(F)(F)F)ccc21 [Compound 3, (3R,4R)-4-[3,6-bis(trifluoromethyl)-9H-carbazol-9-yl]azepan-3-ol] | < 3

These compounds were tested on P. falciparum NF54 (assay: P. falciparum growth assay ([3H]hypoxanthine incorporation)). Conditions: Plasmodium falciparum, [3H]-hypoxanthine incorporation at 72 h, read-out: EC50 (nM), concentration that inhibits by 50% the incorporation of [3H]-hypoxanthine.
Assay type: cell-based
Description: P. falciparum strain NF54 was obtained from the Research and Reference Reagent Resource Center (MR4) (Manassas, Va.). The two strains were maintained in vitro by a modification of the method of Trager and Jensen. Cultures were maintained in A positive (A+) human erythrocytes suspended at 5% hematocrit in complete medium. 5 g albumax II (Gibco-Invitrogen, Cat No#11021037), 2.5 mg gentamicin (Sigma Aldrich), 25 mM HEPES (Invitrogen), 5 mg hypoxanthine (Sigma), and 1 L of RPMI 1640 (Invitrogen, Cat No#11875085). Cultures were grown in 100 mm petri-dishes (BD Falcon) at a volume of 15 mL and were kept in a standard gas environment of 4% CO2 and 3% O2 at temperature 37° C. in a tri-gas incubator (Cat#3131, Thermo Scientific Forma Series II Water Jacketed). Parasite growth and morphology were observed daily using thin smears at 100× (oil immersion) magnification following staining with Geimsa stain. […]
Parasite growth was detected in assay by the traditional [3H]hypoxanthine incorporation assay as previously described by Desjardins and colleagues (Antimicrob. Agents Chemother., 16(6), 710, 1979). To perform the [3H]hypoxanthine incorporation assay, the new antimalarial agents were serially diluted 1:1 into hypoxanthine-free complete medium to a final volume of 100 μL (final antimalarial agent concentration range, 10,000 nM to 4.8 nM may change in special case) in 96 well sterile cell culture plates. […] All cultures used in the study are albumax II adopted. The microtiter plates were incubated in chamber in a standard gas environment at 37° C. for 72 h. After 48 h of incubation and prior to addition of 50 μL (0.5 μCi/well) 3H-Hypoxanthine (specific activity, 20 Ci/mmol, Conc. 1.0 mCi/ml; American Radiolabeled Chemicals, Inc., St. Louis, Mo.), culture growth was assessed by making the smears that ensures the culture has grown and assay plate is further incubated for 24 h.
Following the incubation period, the plates were harvested with a FilterMate cell harvester (Perkin Elmer) onto unifilter-96 GF/B plates, washed with distilled water to remove excess radiochemical and plates were kept for drying 37° C. overnight or 60° C. for 1 h. 50 μL of Microscint scintillation cocktail (Microscint-High Efficiency LSC-Cocktail; Perkin Elmer) added in the unifilter-96 GF/B plates and kept for 15-20 min. The plates were counted in a Top Count NXT microplate scintillation and luminescence counter (Perkin Elmer). The mean values for [3H]hypoxanthine incorporation in parasitized control and non-parasitized control erythrocytes were calculated.

Row | EC50 [nM] | SMILES
3 | 45.9 | CS(=O)(=O)c1c(C(F)(F)F)ccc2c1c1cc(C(F)(F)F)ccc1n2C1CCCNC[C@@H]1O (mixture of isomers) [6 (mixture of isomers), (3R,4R)-4-[4-methylsulfonyl-3,6-bis(trifluoromethyl)carbazol-9-yl]azepan-3-ol]
4 | 32.9 | COc1cc(Cl)cc2c3cc(Cl)ccc3n([C@H]3CCCNC[C@@H]3O)c12 (racemic) [8 (racemic), (3S,4S)-4-(3,6-dichloro-1-methoxy-9H-carbazol-9-yl)azepan-3-ol]
5 | 21 | O[C@H]1CNCCCC1N1c2ccc(Cl)cc2Oc2cc(Cl)ccc21 (mixture of isomers) [10 (mixture of isomers), (3R,4R)-4-(3,7-dichloro-10H-phenoxazin-10-yl)azepan-3-ol]
6 | 18 | COc1cc2c(cc1Cl)c1cc(Cl)ccc1n2[C@H]1CCCNC[C@@H]1O (racemic) [Compound 9, (3R,4R)-4-(3,6-dichloro-2-methoxy-9H-carbazol-9-yl)azepan-3-ol]
7 | 16.6 | O[C@H]1CNCCC[C@@H]1n1c2ccc(C(F)(F)F)cc2c2cc(C(F)(F)F)cnc21 (racemic) [Compound 14 (i), (3R,4R)-4-[3,6-bis(trifluoromethyl)pyrido[2,3-b]indol-9-yl]azepan-3-ol]
8 | 36.4 | O[C@@H]1CNCCC[C@H]1n1c2ccc(Cl)cc2c2cc(Cl)ccc21 (stereo in doubt) [Compound 2, (3R,4R)-4-(3,6-dichloro-9H-carbazol-9-yl)azepan-3-ol]
9 | 2.55 | O[C@@H]1CNCCC[C@H]1n1c2ccc(C(F)(F)F)cc2c2cc(C(F)(F)F)ccc21 [Compound 3, (3R,4R)-4-[3,6-bis(trifluoromethyl)-9H-carbazol-9-yl]azepan-3-ol]
10 | 12.8 | COc1cc2c(cc1C(F)(F)F)c1nc(C(F)(F)F)ccc1n2[C@@H]1CCCNC[C@H]1O [Compound 17, (3R,4R)-4-(7-methoxy-2,8-bis(trifluoromethyl)-5H-pyrido[3,2-b]indol-5-yl)azepan-3-ol]
11 | 5.4 | COc1cc2c(cc1C(F)(F)F)c1nc(C(F)(F)F)ccc1n2[C@H]1CCCNC[C@@H]1O [Compound 18, (3S,4S)-4-(7-methoxy-2,8-bis(trifluoromethyl)-5H-pyrido[3,2-b]indol-5-yl)azepan-3-ol]
12 | 24 | COc1cc(Cl)cc2c3nc(C(F)(F)F)ccc3n([C@@H]3CCCNC[C@H]3O)c12 [Compound 19, (3R,4R)-4-(8-chloro-6-methoxy-2-(trifluoromethyl)-5H-pyrido[3,2-b]indol-5-yl)azepan-3-ol]
13 | 13.1 | COc1cc(Cl)cc2c3nc(C(F)(F)F)ccc3n([C@H]3CCCNC[C@@H]3O)c12 [Compound 20, (3S,4S)-4-(8-chloro-6-methoxy-2-(trifluoromethyl)-5H-pyrido[3,2-b]indol-5-yl)azepan-3-ol]
14 | 41.7 | O[C@@H]1CNCCC[C@H]1n1c2ccc(Cl)cc2c2nc(C(F)(F)F)ncc21 [Compound 21, (3R,4R)-4-(8-chloro-2-(trifluoromethyl)-5H-pyrimido[5,4-b]indol-5-yl)azepan-3-ol]
15 | 46.1 | O[C@H]1CNCCC[C@@H]1n1c2ccc(Cl)cc2c2nc(C(F)(F)F)ncc21 [Compound 22, (3S,4S)-4-(8-chloro-2-(trifluoromethyl)-5H-pyrimido[5,4-b]indol-5-yl)azepan-3-ol]
16 | 11.2 | O[C@@H]1CNCCC[C@H]1n1c2ccc(C(F)(F)F)nc2c2cc(C(F)(F)F)cnc21 [Compound 23, (3R,4R)-4-(2,8-bis(trifluoromethyl)-5H-pyrrolo[2,3-b:4,5-b′]dipyridin-5-yl)azepan-3-ol]
17 | 2.3 | O[C@H]1CNCCC[C@@H]1n1c2ccc(C(F)(F)F)nc2c2cc(C(F)(F)F)cnc21 [Compound 24, (3S,4S)-4-(2,8-bis(trifluoromethyl)-5H-pyrrolo[2,3-b:4,5-b′]dipyridin-5-yl)azepan-3-ol]
18 | 28.2 | O=C1CC[C@@H](n2c3ccc(Cl)cc3c3cc(Cl)ccc32)[C@H](O)CN1 [Compound 27, (5R,6R)-5-(3,6-dichloro-9H-carbazol-9-yl)-6-hydroxyazepan-2-one]
